Experimental data taken from patent publication US20230210871A1 (THE LIMITED COMPANY RESEARCH AND DEVELOPMENT COMPANY …, priority 2017, published 2023).

Biological target: BSA glycation (Bos taurus, UniProt P02769)
Test: Determination of antiglycation activity (BSA glycation by glucose, fluorescence of glycated BSA)
Assay type: biochemical, bovine
Details: for The average concentration of AGEs in the sample at a given concentration of the drug (Δ %, M ± m): BSA 1 mg/ml, glucose 500 mM, pH 7.4, 24 hours at 60° C
Description: The reaction mixture contains solutions of bovine serum albumin (1 mg/ml) and glucose (500 mM) in phosphate buffer (pH=7.4). To prevent bacterial growth, sodium azide in a final concentration of 0.02% is added to the buffer solution. All substances are dissolved in dimethyl sulfoxide (DMSO). […] All experimental samples are incubated for 24 hours at 60° C. At the end of the incubation period, specific fluorescence of glycated bovine serum albumin (BSA) is determined using an F-7000 spectrofluorimeter (Hitachi, Japan) at an excitation wavelength of 370 nm and an emission wavelength of 440 nm.
The calculation of the IC50 indicator is carried out by the method of regression analysis (Table 2).

Chain of BSA glycation (P02769 25-607): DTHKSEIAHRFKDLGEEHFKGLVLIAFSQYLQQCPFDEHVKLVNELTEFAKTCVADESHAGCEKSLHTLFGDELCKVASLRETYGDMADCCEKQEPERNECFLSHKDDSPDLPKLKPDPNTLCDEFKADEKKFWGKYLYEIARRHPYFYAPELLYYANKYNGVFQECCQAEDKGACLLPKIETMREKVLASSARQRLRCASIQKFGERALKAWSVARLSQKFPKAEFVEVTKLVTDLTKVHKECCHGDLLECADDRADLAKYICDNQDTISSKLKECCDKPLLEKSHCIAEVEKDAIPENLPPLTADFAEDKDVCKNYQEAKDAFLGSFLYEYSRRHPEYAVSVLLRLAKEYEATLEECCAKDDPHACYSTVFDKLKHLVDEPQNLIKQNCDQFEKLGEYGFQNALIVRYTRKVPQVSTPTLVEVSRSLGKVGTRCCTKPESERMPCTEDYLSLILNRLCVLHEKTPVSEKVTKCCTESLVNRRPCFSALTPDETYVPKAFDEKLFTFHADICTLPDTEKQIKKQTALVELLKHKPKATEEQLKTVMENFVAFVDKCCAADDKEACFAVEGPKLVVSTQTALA

N=C(N)NN [Aminoguanidine, aminoguanidine]
IC50 (calculated by regression analysis): 765 µM | The average concentration of AGEs in the sample at a given concentration of the drug (Δ %, M ± m) (drug concentration 3*10^−4 mol): 50.25 ± 1.08 Δ % | The average concentration of AGEs in the sample at a given concentration of the drug (Δ %, M ± m) (drug concentration 3*10^−5 mol): 19.14 ± 2.24 Δ % | The average concentration of AGEs in the sample at a given concentration of the drug (Δ %, M ± m) (drug concentration 10^−3 mol): 58.08 ± 0.72 Δ % | The average concentration of AGEs in the sample at a given concentration of the drug (Δ %, M ± m) (drug concentration 10^−4 mol): 38.75 ± 1.52 Δ % | The average concentration of AGEs in the sample at a given concentration of the drug (Δ %, M ± m) (drug concentration 10^−5 mol): 3.53 ± 2.31 Δ %
